Laboratory results as given in US8211900B2, “DHFR enzyme inhibitors” (Chroma Therapeutics Ltd., priority 2006, dated 2012).

Columns and labels:
THP-1 = assay: Cell inhibition assay (WST-1 cell viability), THP-1; format: cell-based; conditions: Homo sapiens, THP-1 cells, 72-96 h, read-out: Inhibition cell proliferation THP-1
Description: (§1) Cancer cell lines (U937, HCT-116, THP-1 and HUT78) growing in log phase were harvested and seeded at 1000-2000 cells/well (100 μl final volume) into 96-well tissue culture plates. Following 24 h of growth cells were treated with compound.
(§2) Plates were then re-incubated for a further 72-96 h before a WST-1 cell viability assay was conducted according to the suppliers (Roche Applied Science) instructions. Data were expressed as a percentage inhibition of the control, measured in the absence of inhibitor, as follows:— % inhibition=100−((S^i/S^o)×100) where S^i is the signal in the presence of inhibitor and S^o is the signal in the presence of DMSO. Dose response curves were generated from 8 concentrations (top final concentration 10 μM, with 3-fold dilutions), using 6 replicates. IC50 values were determined by non-linear regression analysis, after fitting the results to the equation for sigmoidal dose response with variable slope (% activity against log concentration of compound), using Graphpad Prism software. IC50 values were allocated to one of the three ranges as follows: • Range A IC %)<100 nM • Range B: 100 nM<IC50<1000 nM • Range C: IC50>1000 nM

U937 = assay: Cell inhibition assay (WST-1 cell viability), U937; format: cell-based; conditions: Homo sapiens, U-937, U937 cells, 72-96 h, read-out: Inhibition cell proliferation U937
Description: as §1, §2

HUT78 = assay: Cell inhibition assay (WST-1 cell viability), HUT78; format: cell-based; conditions: Homo sapiens, HUT78 cells, 72-96 h, read-out: Inhibition cell proliferation HUT
Description: as §1, §2

HCT-116 = assay: Cell inhibition assay (WST-1 cell viability), HCT-116; format: cell-based; conditions: Homo sapiens, HCT-116 cells, 72-96 h, read-out: Inhibition cell proliferation HCT-116
Description: as §1, §2

recombinant human DHFR = molecular target: T1, recombinant human DHFR (Homo sapiens, UniProt P00374); assay: DHFR enzyme inhibition assay (Sigma kit CS0340); format: biochemical; conditions: NADPH 60 μM, dihydrofolic acid 50 μM
T1 construct: purchased Sigma CS0340
T1 sequence (P00374 1-187): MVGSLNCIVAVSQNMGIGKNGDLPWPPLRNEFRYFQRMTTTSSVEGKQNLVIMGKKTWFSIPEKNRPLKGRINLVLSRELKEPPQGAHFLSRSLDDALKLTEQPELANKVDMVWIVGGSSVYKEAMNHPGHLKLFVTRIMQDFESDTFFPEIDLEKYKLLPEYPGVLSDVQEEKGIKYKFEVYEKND
Description: The ability of compounds to inhibit DHFR activity was measured in an assay based on the ability of DHFR to catalyse the reversible NADPH-dependent reduction of dihydrofolic acid to tetrahydrofolic acid using a Sigma kit (Catalogue number CS0340). This uses proprietary assay buffer and recombinant human DHFR at 7.5×10^−4 Unit per reaction, NADPH at 60 μM and dihydrofolic acid at 50 μM. The reaction was followed by monitoring the decrease in absorbance at 340 nm, for a 2 minute period, at room temperature, and the enzyme activity was calculated as the rate of decrease in absorbance. Enzyme activity, in the presence of inhibitor, was expressed as a percentage of inhibitor-free activity and the inhibitor IC50 was determined from a sigmoidal dose response curve using XLfit software (% activity against log concentration of compound). Each sample was run in triplicate and each dose response curve was composed of 10 dilutions of the inhibitor.

Structure (SMILES)	IC50 (THP-1) [nM]	IC50 (U937) [nM]	IC50 (HUT78) [nM]	IC50 (HCT-116) [nM]	IC50 (recombinant human DHFR) [nM]
Cc1c(CNc2ccc(C(=O)N[C@@H](CC(C)C)C(=O)OC3CCCC3)cc2)cnc2nc(N)nc(N)c12 [Example 1, (S)-2-{4-[(2,4-Diamino-5-methyl-pyrido[2,3-d]pyrimidin-6-ylmethyl)-amino]-benzoylamino}-4-methyl-pentanoic Acid Cyclopentyl Ester]	< 100	< 100	< 100	< 100	> 1000
Cc1c(CNc2ccc(C(=O)N[C@@H](CC(C)C)C(=O)O)cc2)cnc2nc(N)nc(N)c12 [Example 2, (S)-2-(4-((2,4-diamino-5-methylpyrido[2,3-a]pyrimidin-6-yl)methylamino)benzamido)-4-methylpentanoic Acid]	–	–	–	–	< 100
Cc1c(CNc2ccc(CN[C@@H](CC(C)C)C(=O)OC3CCCC3)cc2)cnc2nc(N)nc(N)c12 [Example 3, (S)-2-{4-[(2,4-Diamino-5-methyl-pyrido[2,3-d]pyrimidin-6-ylmethyl)-amino]-benzylamino}-4-methyl-pentanoic Acid Cyclopentyl Ester]	100 to 1000	< 100	100 to 1000	> 1000	> 1000
Cc1c(CNc2ccc(CN[C@@H](CC(C)C)C(=O)O)cc2)cnc2nc(N)nc(N)c12 [Example 4, (S)-2-{4-[(2,4-Diamino-5-methyl-pyrido[2,3-d]pyrimidin-6-ylmethyl)-amino]-benzylamino}-4-methyl-pentanoic Acid]	–	–	–	–	< 100
COc1cc(NCc2ccc3nc(N)nc(N)c3c2C)cc(OC)c1OCC(=O)N[C@@H](CC(C)C)C(=O)OC1CCCC1 [Example 5, Cyclopentyl N-[(4-{[(2,4-diamino-5-methylquinazolin-6-yl)methyl]amino}-2,6-dimethoxyphenoxy)acetyl]-L-leucinate]	< 100	< 100	< 100	100 to 1000	> 1000
COc1cc(NCc2ccc3nc(N)nc(N)c3c2C)cc(OC)c1OCC(=O)N[C@@H](CC(C)C)C(=O)OC(C)(C)C [Example 6, tert-Butyl N-[(4-{[(2,4-diamino-5-methylquinazolin-6-yl)methyl]amino}-2,6-dimethoxyphenoxy)acetyl]-L-leucinate]	< 100	< 100	100 to 1000	100 to 1000	> 1000
COc1cc(NCc2ccc3nc(N)nc(N)c3c2C)cc(OC)c1OCC(=O)N[C@@H](CC(C)C)C(=O)O [Example 7, N-[(4-{[(2,4-diamino-5-methylquinazolin-6-yl)methyl]amino}-2,6-dimethoxyphenoxy)acetyl]-L-leucine]	–	–	–	–	< 100
COc1cc(NCc2ccc3nc(N)nc(N)c3c2C)cc(OC)c1OCCN[C@@H](CC(C)C)C(=O)OC1CCCC1 [Example 8, Cyclopentyl N-[2-(4-{[(2,4-diamino-5-methylquinazolin-6-yl)methyl]amino}-2,6-dimethoxyphenoxy)ethyl]-L-leucinate]	< 100	< 100	< 100	100 to 1000	100 to 1000
COc1cc(NCc2ccc3nc(N)nc(N)c3c2C)cc(OC)c1OCCN[C@@H](CC(C)C)C(=O)O [Example 9, N-[2-(4-{[(2,4-diamino-5-methylquinazolin-6-yl)methyl]amino}-2,6-dimethoxyphenoxy)ethyl]-L-leucine]	–	–	–	–	< 100
COc1cc(NCc2ccc3nc(N)nc(N)c3c2C)cc(OC)c1OCCN[C@@H](CC(C)C)C(=O)OC(C)(C)C [Example 10, tert-Butyl N-[2-(4-{[(2,4-diamino-5-methylquinazolin-6-yl)methyl]amino}-2,6-dimethoxyphenoxy)ethyl]-L-leucinate]	100 to 1000	100 to 1000	100 to 1000	100 to 1000	100 to 1000
